The term Ki denotes a measure of affinity in units of concentration, obtained from inhibition or displacement. As a reminder, the IC50 is the midpoint of a concentration-inhibition curve. In general, EC50 refers to the concentration at which the effect is half-maximal. A high value points to lower potency in that assay. The term Emax denotes the maximal effect, on the per cent scale that the assay sets.

These results are taken from publication PMC11181328 (Journal of Medicinal Chemistry, 2024).

The test system of data set [1] is male Swiss Webster mice. As to the kind of experiment: Warm-water tail immersion assay, receptor selectivity study. Format: in vivo, mouse.
Data set [2] has as its system male Swiss Webster mice. The experiment in a line: Warm-water tail immersion assay, time course study. As to conditions: 0.1 mg/kg s.c. Format: in vivo, mouse.
The subject of data set [3] is male Swiss Webster mice. The experiment in a line: Locomotor activity assay. Format: in vivo, mouse. As to conditions: s.c., 30 min session. The procedure: This hypolocomotion could result in false positives in assays of evoked antinociception such as WWTI.[115] Thus, a locomotor activity assay was utilized to assess this end point in accordance with previous studies.[28] In brief, the day prior to testing, mice were placed in the open field chamber for acclimation. On the test day, they were injected with compounds 21, 23, NLF, or vehicle and immediately placed back into the open field chamber. Photo beam breaks then recorded the mouse’s locomotion over a 30 min test period.
Six open field activity chambers (Med Associates, St. Albans, VT) were used in the locomotor activity study. Each chamber is located inside a sound-attenuating cubicle (Med Associates) and is equipped with a ventilation system. The interior of the chamber consists of a 27 × 27 cm plexiglass enclosure wired with photobeam cells and connected to a computer console that monitors the activity of the animal.
The day before the experiment, mice were acclimated to the activity chambers for a period of 30 min. On the day of the experiment, mice were administered vehicle or test compound s.c., placed into the activity chambers immediately and activity was monitored and recorded for a period of 30 min.
The primary dependent measures are total (1) distance traveled (cm), (2) ambulatory counts, (3) vertical counts, and (4) average speed (cm/s) within the 30 min session. Data are shown as mean ± SEM. Data were compared using one-way or two-way ANOVA as appropriate and a significant ANOVA was followed by a Dunnet’s post hoc test as appropriate. Statistical significance was defined as p < 0.05.

Data set [4] concerns male and female Sprague–Dawley rats. As to conditions: intravenous, FR5 schedule of reinforcement, 2 h sessions.
The test system of data set [5] is male Swiss Webster mice. As to conditions: warm-water tail immersion; cited from earlier work.
The target of data set [6] is T1, DOR (Homo sapiens, UniProt P41143).
T1 construct: expressed in transfected cells; membrane homogenate
As to conditions: read-out: radioligand binding affinity (Ki, nM) DOR; [3H]diprenorphine; cited from earlier work.

The test system of data set [7] is male Swiss Webster mice. As to conditions: 0.1 mg/kg; cited from earlier work.
The conditions of data set [8]: same conditions; cited from earlier work.
The next data set concerns the target hERG (Homo sapiens, UniProt Q12809). As to conditions: read-out: hERG IC50; cited from earlier work.
The subject of data set [9] is male Swiss Webster mice. As to the kind of experiment: Warm-water tail immersion assay, antagonism of morphine. As to conditions: s.c. 5 min prior to morphine. Format: in vivo, mouse.
In data set [10] the target is T1, DOR. The experiment in a line: Competitive radioligand binding assay, DOR. As to conditions: [3H]diprenorphine, hDOR-CHO membranes; read-out: radioligand binding affinity (Ki, nM) DOR.
Data set [11] deals with male Swiss Webster mice. The experiment in a line: Warm-water tail immersion assay, agonism (single dose screen and potency). Format: in vivo, mouse. As to conditions: single dose 10 mg/kg s.c., 20 min.
Data set [12] has as its target T2, MOR (Mus musculus, UniProt P42866). The experiment in a line: Competitive radioligand binding assay, MOR. More on the design: expressed in transfected cells; membrane homogenate. As to conditions: [3H]naloxone, mMOR-CHO membranes; for Ki: read-out: radioligand binding affinity (Ki, nM) MOR.
The target in data set [13] is T3, KOR (Mus musculus, UniProt P33534).
T3 construct: expressed in transfected cells; membrane homogenate
As to the kind of experiment: Competitive radioligand binding assay, KOR. As to conditions: [3H]diprenorphine, mKOR-CHO membranes.

For data set [14], the target named is T2, MOR. As to conditions: percent of DAMGO; MOR functional activity first published; cited from earlier work.
Data set [15] has as its target T3, KOR. As to the kind of experiment: [35S]-GTPγS functional assay, KOR. Format: biochemical. As to conditions: for Emax: percent of U50,488 full agonist control. (GTPγS is a poorly hydrolysed GTP analogue; its binding reports G protein activation.)
Data set [16] deals with T1, DOR. The experiment in a line: [35S]-GTPγS functional assay, DOR. Format: biochemical. As to conditions: hDOR-CHO membranes.

Structures can show the parent of a compound that is named as a salt. Where two headings read alike, the source gives them in different places.

In the case of `CN(C(=O)/C=C/c1ccoc1)[C@@H]1CC[C@@]2(O)[C@H]3Cc4ccc(O)c5c4[C@@]2(CCN3CC2CC2)[C@H]1O5.Cl` [NLF, Nalfurafine, reference compound], the “antagonism of antinociceptive effects by nor-BNI (KOR antagonist) pretreatment” value with male Swiss Webster mice [1] (10 mg/kg nor-BNI s.c. 24 h prior to 0.1 mg/kg test compound s.c. (23 also 0.05 mg/kg)) is “significantly lower”. Besides, the “antagonism of antinociceptive effects by β-FNA (MOR antagonist) pretreatment” value in the data set with male Swiss Webster mice [1] (10 mg/kg β-FNA s.c. 24 h prior to 0.1 mg/kg test compound s.c.) is “not antagonized by β-FNA”. For the same molecule, the “antagonism of antinociceptive effects by NTI (DOR antagonist) pretreatment” value in the data set with male Swiss Webster mice [1] (15 mg/kg NTI s.c. 30 min prior to 0.1 mg/kg test compound s.c. (23 also 0.05 mg/kg)) is on record as “significantly lower”. Further, in the data set with male Swiss Webster mice [1] (nor-BNI 10 mg/kg + NTI 15 mg/kg s.c. prior to test compound), the “antagonism of antinociceptive effects by NTI and nor-BNI pretreatment together” value is “did not result in a more drastic decrease than either antagonist alone”. In addition, in the data set with male Swiss Webster mice [2], the “antinociceptive effects significant until (time postinjection)” value was determined as 1 h and the “return to the baseline postinjection” value was found to be 9 h. In the data set on male Swiss Webster mice [3], the locomotor activity result is “slight dose-dependent trends for decreased locomotion”. The “average speed by time versus vehicle” value with male Swiss Webster mice [3] (Figure 6F–H) was “significantly different from vehicle”. Moreover, the “reinforcing effect (number of infusions earned versus saline)” value in [4] is listed as “did not function as a reinforcer”. Further, the “potency ED50 [95% CI] mg/kg” value in the data set with male Swiss Webster mice [5] was 0.046 [0.016–0.126] mg/kg. The Ki at DOR [6] was 116 ± 20.9 nM.
As for `CN(C(=O)/C=C/c1ccoc1)[C@H]1CC[C@@]2(O)[C@H]3Cc4ccc(O)c5c4[C@@]2(CCN3CC2CC2)[C@H]1O5.Cl` [NMF], the “duration of antinociceptive effects” value in the data set with male Swiss Webster mice [7] is recorded as 1 h. Moreover, in data set [8], the “half-life in rat liver S9 fraction” value is 10 min. In the data set on male Swiss Webster mice [5], the “potency ED50 [95% CI] mg/kg” value was 0.037 [0.014–0.096] mg/kg. Moreover, the half-inhibitory concentration (IC50) at hERG is 6700 nM. The Ki at DOR [6] was 0.64 ± 0.11 nM.
As to `C=CCN1CC[C@]23c4c5ccc(O)c4O[C@H]2C(=O)CC[C@@]3(O)[C@H]1C5` [naloxone, Naloxone HCl], the “blockade of morphine antinociception” value in the data set on male Swiss Webster mice [9] is “sufficiently antagonized morphine antinociception”.
For the molecule `Cl.O=C(CCc1ccco1)N[C@@H]1CC[C@@]2(O)[C@H]3Cc4ccc(O)c5c4[C@@]2(CCN3CC2CC2)[C@H]1O5` [Compound 16, 17-Cyclopropylmethyl-3,14β-dihydroxy-4,5α-epoxy-6β-[3′-(furan-2″-yl)propanamido]morphinan Hydrochloride], the Ki at DOR [10] turned out to be 33 ± 3.58 nM; at MOR [12], 0.28 ± 0.02 nM; on KOR [13] (read-out: radioligand binding affinity (Ki, nM) KOR), 0.61 ± 0.07 nM. Besides, the “antinociception compared to the vehicle group” value with male Swiss Webster mice [11] is given as “lack of significant antinociceptive effect”. Also, the “radioligand binding affinity (Ki, nM) MOR” value on MOR [12] was “subnanomolar”. The “radioligand binding affinity (Ki, nM) KOR” value on KOR [13] is given as “subnanomolar”. At MOR [14], the “[35S]-GTPγS functional activity MOR Emax (%)” value was “above 40%”. Moreover, the half-maximal effective concentration (EC50) is 1.62 ± 0.12 nM at KOR [15] (mKOR-CHO membranes) and 16.8 ± 2.96 nM on DOR [16].
As for `Cl.O=C(CCc1ccoc1)N[C@@H]1CC[C@@]2(O)[C@H]3Cc4ccc(O)c5c4[C@@]2(CCN3CC2CC2)[C@H]1O5` [Compound 8, 17-Cyclopropylmethyl-3,14β-dihydroxy-4,5α-epoxy-6β-[3′-(furan-3″-yl)propanamido]morphinan Hydrochloride], the “antinociception compared to the vehicle group” value with male Swiss Webster mice [11] is “lack of significant antinociceptive effect”. Besides, at MOR [12], the “radioligand binding affinity (Ki, nM) MOR” value is “subnanomolar” and the Ki was 0.21 ± 0.01 nM. For the same molecule, the “[35S]-GTPγS functional activity MOR Emax (%)” value at MOR [14] was “above 40%”. This molecule also returned an Emax at KOR [15] of 95.9 ± 1.43%.
On to `Cl.O=C(CCc1ccoc1)N[C@H]1CC[C@@]2(O)[C@H]3Cc4ccc(O)c5c4[C@@]2(CCN3CC2CC2)[C@H]1O5` [Compound 6, 17-Cyclopropylmethyl-3,14β-dihydroxy-4,5α-epoxy-6α-[3′-(furan-3″-yl)propanamido]morphinan Hydrochloride], for which, in the data set with male Swiss Webster mice [11], the “antinociception compared to the vehicle group” value is “lack of significant antinociceptive effect”. Moreover, on MOR [12], the “radioligand binding affinity (Ki, nM) MOR” value was “subnanomolar” and the Ki is 0.44 ± 0.1 nM. For the same molecule, the “[35S]-GTPγS functional activity MOR Emax (%)” value on MOR [14] is on record as 27.62 ± 1.96%. On KOR [15], this molecule showed a maximal effect (Emax) of 80.3 ± 4.73%.
